Measured values: ChEMBL document CHEMBL1201862, “PubChem BioAssay data set” (2004)
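Growth conditions: 96-well plates. Treatment: test compound, 48 hours, 5 concentrations. Analysis: linear interpolation between bracketing concentrations; unreached endpoints set to highest concentration. GI50 is the concentration that inhibits growth by half.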 Active and inactive are the calls of the source. No stated cut-off is given here; in the data, active = GI50 up to about 1.1 µM and inactive = higher.

What was measured:
Assay in all cases: inhibition of tumour cell growth, NCI panel, 48 h
Malme-3M = system: Malme-3M
HCT-116 = system: HCT-116
OVCAR-3 = system: OVCAR-3
CAKI-1 = system: CAKI-1
MOLT-4 = system: MOLT-4
Hs-578T = system: Hs-578T
MDA-MB-435 = system: MDA-MB-435
EKVX = system: EKVX
SK-MEL-5 = system: SK-MEL-5
HCT-15 = system: HCT-15
A549 = system: A549
SF-539 = system: SF-539
UACC-257 = system: UACC-257
SF-295 = system: SF-295
SR = system: SR
CCRF-CEM = system: CCRF-CEM
SNB-75 = system: SNB-75

Structure (SMILES) | GI50 (Malme-3M) | GI50 (HCT-116) | GI50 (OVCAR-3) | GI50 (CAKI-1) | GI50 (MOLT-4) | GI50 (Hs-578T) | GI50 (MDA-MB-435) | GI50 (EKVX) | GI50 (SK-MEL-5) | GI50 (HCT-15) | GI50 (A549) | GI50 (SF-539) | GI50 (UACC-257) | GI50 (SF-295) | GI50 (SR) | GI50 (CCRF-CEM) | GI50 (SNB-75)
CCOC(=O)Nc1ccc(S(=O)(=O)Nc2ccc(Br)cc2)cc1 | 74 µM (inactive) | 39.7 µM (inactive) | 36.3 µM (inactive) | 35.8 µM (inactive) | 26.9 µM (inactive) | 30.6 µM (inactive) | 43.5 µM (inactive) | 29.2 µM (inactive) | 18.5 µM (inactive) | 61.5 µM | 60.1 µM (inactive) | 17.2 µM (inactive) | 61.4 µM (inactive) | 30.9 µM (inactive) | 18.2 µM (inactive) | 46.8 µM (inactive) | –
COc1ccc(C2=C(N)c3ncccc3C2=O)cc1 | 43.9 µM (inactive) | > 100 µM (inactive) | 91.2 µM (inactive) | > 100 µM (inactive) | > 100 µM (inactive) | 18.9 µM (inactive) | > 100 µM (inactive) | 45 µM (inactive) | – | > 100 µM | – | > 100 µM (inactive) | > 10 µM (inactive) | > 100 µM (inactive) | 69.7 µM (inactive) | > 100 µM (inactive) | > 100 µM (inactive)
O=C(CSc1nnc(-c2ccccn2)s1)N/N=C/c1ccc([N+](=O)[O-])cc1 | > 100 µM (inactive) | 55.7 µM (inactive) | > 100 µM (inactive) | > 100 µM (inactive) | > 100 µM (inactive) | 32.1 µM (inactive) | > 100 µM (inactive) | – | > 100 µM (inactive) | 45.6 µM | 58.5 µM (inactive) | 59.2 µM (inactive) | > 100 µM (inactive) | 29.4 µM (inactive) | > 100 µM (inactive) | > 100 µM (inactive) | 2.86 µM (inactive)
O=C1NC(N2CCCCC2)=N/C1=C\c1ccc(Cl)cc1 | 16.5 µM (inactive) | 26.5 µM (inactive) | 26.4 µM (inactive) | > 100 µM (inactive) | > 100 µM (inactive) | 28.5 µM (inactive) | 60.4 µM (inactive) | 26.3 µM (inactive) | 35.5 µM (inactive) | 43.1 µM | 38.5 µM (inactive) | 94 µM (inactive) | 36.6 µM (inactive) | 60.5 µM (inactive) | > 100 µM (inactive) | 39.7 µM (inactive) | –
COc1cc2c(NCCN(C)C)nc3c4cc5c(cc4ccc3c2cc1OC)OCO5 | 4.14 µM (inactive) | 3.3 µM (inactive) | – | 2.73 µM (inactive) | 0.242 µM (active) | 5.21 µM (inactive) | 3.5 µM (inactive) | 4.09 µM (inactive) | 2.84 µM (inactive) | 2.94 µM | 2.75 µM (inactive) | 4.06 µM (inactive) | 4.1 µM (inactive) | 2.58 µM (inactive) | 0.115 µM (active) | 1.32 µM (inactive) | 2.18 µM (inactive)
Cc1c2ccccc2c(C)n2c1nc1ccccc12 | 8.69 µM (inactive) | 4.65 µM (inactive) | 5.41 µM (inactive) | – | 2.9 µM (inactive) | 20.2 µM (inactive) | 6.1 µM (inactive) | 14 µM (inactive) | 4.44 µM (inactive) | 4.54 µM | 4.37 µM (inactive) | 4.56 µM (inactive) | 14.2 µM (inactive) | 4.93 µM (inactive) | 6.5 µM (inactive) | 5.06 µM (inactive) | 12.5 µM (inactive)
N=c1oc2ccccc2cc1-c1nc2ccccc2c(=O)[nH]1 | 60.8 µM (inactive) | 42.9 µM (inactive) | – | > 100 µM (inactive) | > 100 µM (inactive) | 23.2 µM (inactive) | > 100 µM (inactive) | 35.6 µM (inactive) | > 100 µM (inactive) | 78.2 µM | 78.3 µM (inactive) | 60.4 µM (inactive) | > 100 µM (inactive) | 32.7 µM (inactive) | 42.9 µM (inactive) | 79.4 µM (inactive) | 2.72 µM (inactive)
Cc1ccc2nc(C(=O)O)c(=O)[nH]c2c1 | > 100 µM (inactive) | > 100 µM (inactive) | > 100 µM (inactive) | > 100 µM (inactive) | > 100 µM (inactive) | > 100 µM (inactive) | > 100 µM (inactive) | > 100 µM (inactive) | > 100 µM (inactive) | > 100 µM | > 100 µM (inactive) | > 100 µM (inactive) | > 100 µM (inactive) | > 100 µM (inactive) | > 100 µM (inactive) | > 100 µM (inactive) | –
O=C1CC(=O)NC(NN2C(=O)/C(=C/c3ccc(Cl)cc3)N=C2c2ccccc2)=N1 | 17.3 µM (inactive) | 15.8 µM (inactive) | 15.9 µM (inactive) | 72.6 µM (inactive) | 4.73 µM (inactive) | 14.3 µM (inactive) | 15.2 µM (inactive) | – | 17.7 µM (inactive) | 15 µM | 14.6 µM (inactive) | 16.8 µM (inactive) | 17.8 µM (inactive) | 14.5 µM (inactive) | 4.71 µM (inactive) | 6.4 µM (inactive) | 29.1 µM (inactive)
O=c1c2cc([N+](=O)[O-])cnc2sn1-c1ccc(Br)cc1 | 19.1 µM (inactive) | 19.5 µM (inactive) | 22.4 µM (inactive) | – | 32.8 µM (inactive) | 23.7 µM (inactive) | > 100 µM (inactive) | 42.5 µM (inactive) | > 100 µM (inactive) | 57.4 µM | 42.3 µM (inactive) | 27.3 µM (inactive) | > 100 µM (inactive) | 17.5 µM (inactive) | 21.8 µM (inactive) | 22.9 µM (inactive) | 73.5 µM (inactive)
CN(C)C1(C(=O)O)CC1 | > 100 µM (inactive) | > 100 µM (inactive) | > 100 µM (inactive) | – | > 100 µM (inactive) | > 100 µM (inactive) | > 100 µM (inactive) | > 100 µM (inactive) | > 100 µM (inactive) | > 100 µM | > 100 µM (inactive) | > 100 µM (inactive) | > 100 µM (inactive) | > 100 µM (inactive) | > 100 µM (inactive) | > 100 µM (inactive) | > 100 µM (inactive)
O=c1n(Cc2ccccc2)c(=O)n2c(=O)n(Cc3ccccc3)c(=O)n12 | > 100 µM (inactive) | > 100 µM (inactive) | – | > 100 µM (inactive) | – | > 100 µM (inactive) | > 100 µM (inactive) | – | > 100 µM (inactive) | > 100 µM | – | 39.8 µM (inactive) | > 100 µM (inactive) | > 100 µM (inactive) | > 100 µM (inactive) | > 100 µM (inactive) | > 100 µM (inactive)
Cc1c(-c2ccccc2)c(C#N)c2nnn(-c3ccc(Cl)cc3)c(=O)n12 | 81.3 µM (inactive) | 12.8 µM (inactive) | 16.4 µM (inactive) | 13.3 µM (inactive) | – | 71.4 µM (inactive) | 31 µM (inactive) | 50.9 µM (inactive) | 1.14 µM (inactive) | 10.1 µM | 21.5 µM (inactive) | 20.7 µM (inactive) | 35.8 µM (inactive) | 7.06 µM (inactive) | 8.53 µM (inactive) | 18.3 µM (inactive) | 30.9 µM (inactive)
CC1=C[C@@H](C)C[C@]2(C)CC[C@H](O2)[C@]23CC[C@](C)(C[C@H](O2)[C@@H]2O[C@@](C)(CC2=O)[C@@H](O)[C@H]2CC[C@@]4(CCC[C@@H](O4)[C@H](C)C(=O)O[C@H]4C[C@H]([C@]5(O)OCC[C@H](C)[C@@H]5O)O[C@H]4C=C1)O2)O3 | 0.00165 µM (active) | 0.00826 µM (active) | 0.00397 µM (active) | < 0.001 µM (active) | – | 0.00115 µM (active) | 0.0371 µM (active) | 0.0113 µM (active) | 0.00148 µM (active) | 0.00796 µM | 0.0035 µM (active) | 0.00185 µM (active) | 0.0148 µM (active) | 0.00113 µM (active) | 0.00157 µM (active) | 0.00188 µM (active) | < 0.001 µM (active)
COc1cc2c3c(n(C)c(=O)c2cc1OC)-c1cc2c(cc1/C3=C\CCCI)OCO2 | 2.23 µM (inactive) | 1.47 µM (inactive) | > 61.1 µM (inactive) | 4.35 µM (inactive) | 0.238 µM (active) | 4.11 µM (inactive) | 19.3 µM (inactive) | 30.1 µM (inactive) | 10.4 µM (inactive) | 2.56 µM | 38.9 µM (inactive) | 3.94 µM (inactive) | > 100 µM (inactive) | 0.904 µM (active) | 0.239 µM (active) | 1.29 µM (inactive) | –
CC(=O)OCC(OC(C)=O)C(OC(C)=O)C(OC(C)=O)C(C=NN(C(C)=O)S(=O)(=O)c1ccc(/C=C2\NC(=O)N(C)C2=O)cc1)OC(C)=O (configuration not stated) | 17.5 µM (inactive) | 17.1 µM (inactive) | 29.7 µM (inactive) | 45.4 µM (inactive) | 10.6 µM (inactive) | 25.3 µM (inactive) | 33.1 µM (inactive) | 23.2 µM (inactive) | 29.6 µM (inactive) | 21.3 µM | 47 µM (inactive) | 26.7 µM (inactive) | 44.8 µM (inactive) | 42.8 µM (inactive) | 11.8 µM (inactive) | – | 33.7 µM (inactive)
CC(=O)O[C@H]1CC[C@@]2(C)[C@@H](CC[C@@H]3[C@@H]2CC(=O)[C@@]2(C)[C@H]3C[C@@H]3CC(C)=CC(=O)[C@@H]32)C1 | 40.6 µM (inactive) | 49.5 µM (inactive) | 81.8 µM (inactive) | > 100 µM (inactive) | – | 20.7 µM (inactive) | 58.6 µM (inactive) | 28.9 µM (inactive) | 40.9 µM (inactive) | 98.2 µM | 62.4 µM (inactive) | – | 62.1 µM (inactive) | 56.1 µM (inactive) | 23.5 µM (inactive) | 36.1 µM (inactive) | 30.1 µM (inactive)
